Laboratory results from patent US20240408169A1 (priority 2023, published 2024).
Like-named read-outs stand apart in the source and are kept apart here. *1 amine or outer side, *2 acyl side, *3 side chain or, on linkers, in order; H or OH if unused. Where a SMILES comes first, the peptide text is derived from it. Bridges are numbered along the chain shown (N, C = ends). [ ]: non-standard residue; d: D form. The star is where a group is joined. X138 = CN([C@@H](Cc1cc(Cl)ccc1-c1ccc(S(=O)(=O)N2CCCC2)cc1)C(=O)[*:2])[*:1]; X127 = CN([C@@H](Cc1cc(F)ccc1-c1cnn(S(=O)(=O)C2CC2)c1)C(=O)[*:2])[*:1]; X42 = CN([C@@H](Cc1cc(Cl)ccc1-c1cnn(S(=O)(=O)C2CC2)c1)C(=O)[*:2])[*:1]; X195 = CC(=O)Nc1ccc(-c2ccc(Cl)cc2C[C@@H](C(=O)[*:2])N(C)[*:1])cn1; X209 = CN([C@@H](Cc1cc(Cl)ccc1-c1cnc2nn(C)cc2c1)C(=O)[*:2])[*:1]; NMehhhLys(Me) = CN([C@@H](CCCCCCCN(C)[*:3])C(=O)[*:2])[*:1]; X174 = CN([C@@H](Cc1cc(Cl)cnc1-c1cnn(C)c1)C(=O)[*:2])[*:1]; NMe(hhhLys) = CN([C@@H](CCCCCCCN[*:3])C(=O)[*:2])[*:1]; Oxane2carbonyl(2R-CF3) = O=C([C@@]1(C(F)(F)F)CCCCO1)*; cBuCO(3,3-F2-1-CF3) = O=C(C1(C(F)(F)F)CC(F)(F)C1)*; X161 = Cc1ccc(F)cc1C[C@@H](C(=O)[*:2])N(C)[*:1]; X4 = Cc1ccc(Cl)cc1C[C@@H](C(=O)[*:2])N(C)[*:1]; Pro(trans-4-F) = O=C(O)[C@@H]1C[C@@H](F)CN1; Gly(cPr) = N[C@H](C(=O)O)C1CC1

Legend:
CyclinA2/CDK2 = biological target: T1, CyclinA2/CDK2 (Homo sapiens, UniProt P20248); experiment: Fluorescence Polarization (FP) competitive binding assay, Cyclin A2/Cdk2;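 note: plates equilibrated two hours at room temperature before polarization reading, IC50 fitted from eight-concentration compound titration curves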
T1 construct: purchased CRELUX Protein Services

CyclinB1/CDK1 = biological target: T2, CyclinB1/CDK1 (Homo sapiens, UniProt P14635); experiment: Fluorescence Polarization (FP) competitive binding assay, Cyclin B1/Cdk1;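 note: fluorescence polarization read after equilibration at room temperature, with IC50 taken from serially diluted dose-response curves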
T2 construct: purchased Eurofins, discovery 14-450

CyclinE1/CDK2 = biological target: T3, CyclinE1/CDK2 (Homo sapiens, UniProt P24864); experiment: Fluorescence Polarization (FP) competitive binding assay, Cyclin E1/Cdk2;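 note: readings taken after two-hour equilibration at room temperature in HEPES buffer with NaCl, DTT, NP-40 and BSA, IC50 fitted from eight-concentration serial dilution series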
T3 construct: purchased Eurofins, discovery 14-475

NCI-H1048 cells = experiment: MTT proliferation assay, NCI-H1048; assay type: cell-based; conditions: 5 days compound exposure, 1:3 serial dilution starting at 10 μM;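 note: Dose-response in 96-well plates over 8 or 10 concentration points, with exposure spanning 3-4 cell doublings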
OVCAR3 cells = experiment: MTT proliferation assay, OVCAR3; assay type: cell-based; conditions: 5 days compound exposure, 1:3 serial dilution starting at 10 μM;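 note: compound given as an 8- or 10-point series, one day after plating, with exposure covering roughly 3-4 cell doublings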
[1] = read-out: Cyclin A FP IC50, 8 nM Cyclin A2/Cdk2, 2 nM FAM probe, average of 2-3 independent experiments
[2] = read-out: Cyclin B FP IC50; 10 nM Cyclin B1/Cdk1, 2 nM FAM probe; average of 2-3 independent experiments
[3] = 8 nM Cyclin A2/Cdk2, 2 nM FAM probe, average of 2-3 independent experiments, read-out: Cyclin A FP IC50
[4] = 10 nM Cyclin B1/Cdk1, 2 nM FAM probe; average of 2-3 independent experiments; read-out: Cyclin B FP IC50
[5] = 10 nM Cyclin E1/Cdk2, 2 nM FAM probe, average of 2-3 independent experiments, read-out: Cyclin E FP IC50

CC(C)C[C@@H]1NC(=O)[C@@H](N(C)C(=O)[C@@H](NC(=O)[C@@H]2C[C@@H](F)CN2C(=O)[C@@]2(C(F)(F)F)CCCCO2)C2CC2)CCCCCCCN(C)C(=O)[C@H](Cc2cc(Cl)cnc2-c2cnn(C)c2)N(C)C1=O [Example 248] ({Oxane2carbonyl(2R-CF3)}-[Pro(trans-4-F)][Gly(cPr)][NMehhhLys(Me)]L[X174]; lactam 3-C)
IC50 (CyclinA2/CDK2; [1]): 0.02 µM | IC50 (CyclinB1/CDK1; [2]): 0.02 µM | IC50 (CyclinE1/CDK2): 0.1 µM | GI50 (NCI-H1048 cells): 0.04 µM | GI50 (OVCAR3 cells): 0.02 µM

CC(C)C[C@@H]1NC(=O)[C@@H](N(C)C(=O)[C@@H](NC(=O)[C@@H]2C[C@@H](F)CN2C(=O)C2(C(F)(F)F)CC(F)(F)C2)C2CC2)CCCCCCCN(C)C(=O)[C@H](Cc2cc(Cl)ccc2-c2cnc3nn(C)cc3c2)N(C)C1=O [Example 249] ({cBuCO(3,3-F2-1-CF3)}-[Pro(trans-4-F)][Gly(cPr)][NMehhhLys(Me)]L[X209]; lactam 3-C)
IC50 (CyclinA2/CDK2; [1]): 0.02 µM | IC50 (CyclinB1/CDK1; [2]): 0.02 µM | IC50 (CyclinE1/CDK2): 0.59 µM | GI50 (NCI-H1048 cells): 0.01 µM | GI50 (OVCAR3 cells): 0.01 µM

CC(C)C[C@@H]1NC(=O)[C@@H](N(C)C(=O)[C@@H](NC(=O)[C@@H]2C[C@@H](F)CN2C(=O)C2(C(F)(F)F)CC(F)(F)C2)C2CC2)CCCCCCCN(C)C(=O)[C@H](Cc2cc(F)ccc2-c2cnn(S(=O)(=O)C3CC3)c2)N(C)C1=O [Example 252] ({cBuCO(3,3-F2-1-CF3)}-[Pro(trans-4-F)][Gly(cPr)][NMehhhLys(Me)]L[X127]; lactam 3-C)
IC50 (CyclinA2/CDK2): 0.03 µM | IC50 (CyclinB1/CDK1; [2]): 0.02 µM | IC50 (CyclinE1/CDK2): 0.38 µM | GI50 (NCI-H1048 cells): 0.01 µM | GI50 (OVCAR3 cells): 0.02 µM

CC(C)C[C@@H]1NC(=O)[C@@H](N(C)C(=O)[C@@H](NC(=O)[C@@H]2C[C@@H](F)CN2C(=O)C2(C(F)(F)F)CC(F)(F)C2)C2CC2)CCCCCCCN(C)C(=O)[C@H](Cc2cc(Cl)ccc2-c2cnn(S(=O)(=O)C3CC3)c2)N(C)C1=O [Example 254] ({cBuCO(3,3-F2-1-CF3)}-[Pro(trans-4-F)][Gly(cPr)][NMehhhLys(Me)]L[X42]; lactam 3-C)
IC50 (CyclinA2/CDK2; [3]): 0.03 µM | IC50 (CyclinB1/CDK1; [4]): 0.02 µM | IC50 (CyclinE1/CDK2; [5]): 0.97 µM | GI50 (NCI-H1048 cells): 0.02 µM | GI50 (OVCAR3 cells): 0.02 µM

Cc1ccc(Cl)cc1C[C@H]1C(=O)N(C)CCCCCCC[C@H](N(C)C(=O)[C@@H](NC(=O)[C@@H]2C[C@@H](F)CN2C(=O)C2(C(F)(F)F)CC(F)(F)C2)C2CC2)C(=O)N[C@@H](CC(C)C)C(=O)N1C [Example 263] ({cBuCO(3,3-F2-1-CF3)}-[Pro(trans-4-F)][Gly(cPr)][NMehhhLys(Me)]L[X4]; lactam 3-C)
IC50 (CyclinA2/CDK2; [3]): 0.03 µM | IC50 (CyclinB1/CDK1; [4]): 0.02 µM | IC50 (CyclinE1/CDK2; [5]): 0.2 µM | GI50 (NCI-H1048 cells): 0.03 µM | GI50 (OVCAR3 cells): 0.04 µM

Cc1ccc(F)cc1C[C@H]1C(=O)NCCCCCCC[C@H](N(C)C(=O)[C@@H](NC(=O)[C@@H]2C[C@@H](F)CN2C(=O)C2(C(F)(F)F)CC(F)(F)C2)C2CC2)C(=O)N[C@@H](CC(C)C)C(=O)N1C [Example 264] ({cBuCO(3,3-F2-1-CF3)}-[Pro(trans-4-F)][Gly(cPr)][NMe(hhhLys)]L[X161]; lactam 3-C)
IC50 (CyclinA2/CDK2; [3]): 0.09 µM | IC50 (CyclinB1/CDK1; [4]): 0.02 µM | IC50 (CyclinE1/CDK2; [5]): 0.29 µM | GI50 (NCI-H1048 cells): 0.04 µM | GI50 (OVCAR3 cells): 0.03 µM

CC(=O)Nc1ccc(-c2ccc(Cl)cc2C[C@H]2C(=O)N(C)CCCCCCC[C@H](N(C)C(=O)[C@@H](NC(=O)[C@@H]3C[C@@H](F)CN3C(=O)C3(C(F)(F)F)CC(F)(F)C3)C3CC3)C(=O)N[C@@H](CC(C)C)C(=O)N2C)cn1 [Example 265] ({cBuCO(3,3-F2-1-CF3)}-[Pro(trans-4-F)][Gly(cPr)][NMehhhLys(Me)]L[X195]; lactam 3-C)
IC50 (CyclinA2/CDK2; [3]): 0.02 µM | IC50 (CyclinB1/CDK1; [4]): 0.02 µM | IC50 (CyclinE1/CDK2; [5]): 0.64 µM | GI50 (NCI-H1048 cells): 0.01 µM | GI50 (OVCAR3 cells): 0.02 µM

CC(C)C[C@@H]1NC(=O)[C@@H](N(C)C(=O)[C@@H](NC(=O)[C@@H]2C[C@@H](F)CN2C(=O)C2(C(F)(F)F)CC(F)(F)C2)C2CC2)CCCCCCCN(C)C(=O)[C@H](Cc2cc(Cl)ccc2-c2ccc(S(=O)(=O)N3CCCC3)cc2)N(C)C1=O [Example 266] ({cBuCO(3,3-F2-1-CF3)}-[Pro(trans-4-F)][Gly(cPr)][NMehhhLys(Me)]L[X138]; lactam 3-C)
IC50 (CyclinA2/CDK2; [3]): 0.02 µM | IC50 (CyclinB1/CDK1; [4]): 0.02 µM | IC50 (CyclinE1/CDK2; [5]): 2.22 µM | GI50 (NCI-H1048 cells): 0.03 µM | GI50 (OVCAR3 cells): 0.05 µM

CC(=O)N1CC=C(c2ccc(Cl)cc2C[C@H]2C(=O)NCCCC=CCC[C@H](N(C)C(=O)[C@@H](NC(=O)[C@@H]3C[C@@H](F)CN3C(=O)C3(C(F)(F)F)CC(F)(F)C3)C3CC3)C(=O)N[C@@H](CC(C)C)C(=O)N2C)CC1 [Example 267]
IC50 (CyclinA2/CDK2; [3]): 0.02 µM | IC50 (CyclinB1/CDK1; [4]): 0.02 µM | IC50 (CyclinE1/CDK2; [5]): 1.95 µM | GI50 (NCI-H1048 cells): 0.05 µM | GI50 (OVCAR3 cells): 0.04 µM
